Format in all cases: in vivo
Assay [1] has as its system Corn Earworm (CEW) (Helicoverpa zea). In words: Bioassay on corn earworm (CEW), 128-well diet tray assay. The note with it: Corn earworm, 50 μg/cm^2; for pest or weed control at 50 µg/cm2, 50 µg/cm2: Helicoverpa zea, read-out: % Mortality CEW 50 μg/cm^2. In a few lines: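 Second-instar Helicoverpa zea larvae (one to five per well) placed on artificial diet treated with 50 μg/cm^2 compound in 90:10 acetone-water, dried, eight wells per compound. Held at 25 °C, 14:10 light-dark, five to seven days; percent mortality averaged over wells.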

For assay [2], the system named is Beet Armyworm (BAW) (Spodoptera exigua). The assay can be described thus: Bioassay on beet armyworm (BAW), 128-well diet tray assay. The conditions noted are these: Beet armyworm, 50 μg/cm^2; for pest or weed control at 50 µg/cm2, 50 µg/cm2: Spodoptera exigua, read-out: % Mortality BAW 50 μg/cm^2. In a few lines:
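Second-instar Spodoptera exigua larvae, one to five per well, on artificial diet treated with 50 μg/cm^2 compound in 90:10 acetone-water and dried, eight wells per compound. Held at 25 °C, 14:10 light-dark for five to seven days; percent mortality averaged over wells.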

The test system of assay [3] is Green Peach Aphid (GPA) (Myzus persicae). The assay can be described thus: Bioassay on green peach aphid (GPA), foliar spray on cabbage seedlings. The conditions noted are these: 72 h, read-out: % Mortality GPA 200 ppm. The protocol: Bioassays on Green Peach Aphid (“GPA”) (Myzus persicae)
Certain molecules disclosed in this document were tested against GPA using procedures described in the following example. In the reporting of the results, the “GPA Rating Table” was used (See Table Section).
Cabbage seedlings grown in 3-inch pots, with 2-3 small (3-5 cm) true leaves, were used as test substrate. The seedlings were infested with 20-50 GPA (wingless adult and nymph stages) one day prior to chemical application. Four pots with individual seedlings were used for each treatment. Test compounds (2 mg) were dissolved in 2 mL of acetone/methanol (1:1) solvent, forming stock solutions of 1000 ppm test compound. The stock solutions were diluted 5× with 0.025% Tween 20 in H2O to obtain the solution at 200 ppm test compound. A hand-held aspirator-type sprayer was used for spraying a solution to both sides of […] leaves until runoff. Reference plants (solvent check) were sprayed with the diluent only containing 20% by volume of acetone/methanol (1:1) solvent. Treated plants were held in a holding room for three days at approximately 25° C. and ambient relative humidity (RH) prior to grading. Evaluation was conducted by counting the number of live aphids per plant under a microscope. Percent Control was measured by using Abbott's correction formula (W. S. Abbott, “A Method of Computing the Effectiveness of an Insecticide” J. Econ. Entomol. 18 (1925), pp. 265-267) as follows. Corrected%Control=100*(X−Y)/X • where • X=No. of live aphids on solvent check plants and • Y=No. of live aphids on treated plants
The results are indicated in the table entitled “Table 5: Biological Results” (See Table Section).

Structures are written as SMILES.

With `Cc1cccc(C)c1/N=C(/N/N=C/c1ccc(-c2ncn(-c3ccc(OC(F)(F)F)cc3)n2)cc1)SCOC(=O)OC(C)C` [Compound 24C], the pest or weed control at 50 µg/cm2, 50 µg/cm2 in assay [1] and in assay [2] was 50 to 100% throughout. The pest or weed control at 200 ppm in assay [3] is 0 to 80%.
As to `COc1cc(C)c(/N=C(/N/N=C/c2ccc(-c3ncn(-c4ccc(OC(F)(F)F)cc4)n3)cc2)SCOC(=O)C(C)C)c(C)c1` [Compound 27C], the pest or weed control at 50 µg/cm2, 50 µg/cm2 in assay [1] and in assay [2] was 50 to 100% each time. In addition, the pest or weed control at 200 ppm in assay [3] is 0 to 80%.
Turning to `COc1cc(C)c(/N=C(/N/N=C/c2ccc(-c3ncn(-c4ccc(OC(F)(F)F)cc4)n3)cc2)SCOC(=O)CNC(=O)OCc2ccccc2)c(C)c1` [Compound 28C], the pest or weed control at 50 µg/cm2, 50 µg/cm2 in assay [1] and in assay [2] was 50 to 100% in each case. Further, the pest or weed control at 200 ppm in assay [3] is 0 to 80%.
Turning to `CCOCC(=O)OCS/C(=N\c1c(C)cc(OC)cc1C)N/N=C/c1ccc(-c2ncn(-c3ccc(OC(F)(F)F)cc3)n2)cc1` [Compound 29C], the pest or weed control at 50 µg/cm2, 50 µg/cm2 in assay [1] and in assay [2] was 50 to 100% in each case. The pest or weed control at 200 ppm in assay [3] was 0 to 80%.
Consider `Cc1cccc(C)c1/N=C(/N/N=C/c1ccc(-c2ncn(-c3ccc(OC(F)(F)F)cc3)n2)cc1)SCOC(=O)CNC(=O)OC(C)(C)C` [Compound 30C], for which the pest or weed control at 50 µg/cm2, 50 µg/cm2 in assay [1] and in assay [2] was 50 to 100% in each case. Moreover, the pest or weed control at 200 ppm in assay [3] was 0 to 80%.
Turning to `CC(=O)OCS/C(=N\c1c(C)cccc1C)N/N=C/c1ccc(-c2ncn(-c3ccc(OC(F)(F)F)cc3)n2)cc1` [Compound 31C], the pest or weed control at 50 µg/cm2, 50 µg/cm2 in assay [1] and in assay [2] was 50 to 100% in each case. The pest or weed control at 200 ppm in assay [3] lay within 0 to 80%.
Turning to `COc1cc(Cl)c(/N=C(/N/N=C/c2ccc(-c3ncn(-c4ccc(OC(F)(F)F)cc4)n3)cc2)SCOC(=O)OC(C)C)c(Cl)c1` [Compound 33C], the pest or weed control at 50 µg/cm2, 50 µg/cm2 in assay [1] and in assay [2] was 50 to 100% throughout. In addition, in assay [3], the pest or weed control at 200 ppm was in the range of 0 to 80%.
As for `Cc1cccc(C)c1/N=C(/N/N=C/c1ccc(-c2ncn(-c3ccc(OC(F)(F)F)cc3)n2)cc1)SCOC(=O)C1CCCC1` [Compound 35C], the pest or weed control at 50 µg/cm2, 50 µg/cm2 in assay [1] and in assay [2] was 50 to 100% in each case. The pest or weed control at 200 ppm in assay [3] fell in the range of 0 to 80%.
In the case of `COc1cc(C)c(/N=C(/N/N=C/c2ccc(-c3ncn(-c4ccc(OC(F)(F)F)cc4)n3)cc2)SCOC(=O)C(C)(C)C)c(C)c1` [Compound 40C], the pest or weed control at 50 µg/cm2, 50 µg/cm2 in assay [1] and in assay [2] was 50 to 100% in each case. The pest or weed control at 200 ppm in assay [3] fell in the range of 0 to 80%.
Regarding `COc1cc(C)c(/N=C(/N/N=C/c2ccc(-c3ncn(-c4ccc(OC(F)(F)F)cc4)n3)cc2)SCOC(=O)C2CCCC2)c(C)c1` [Compound 43C], the pest or weed control at 50 µg/cm2, 50 µg/cm2 in assay [1] and in assay [2] was 50 to 100% each time. In addition, the pest or weed control at 200 ppm in assay [3] was in the range of 0 to 80%.
Regarding `Cc1cccc(C)c1/N=C(/N/N=C/c1ccc(-c2ncn(-c3ccc(OC(F)(F)F)cc3)n2)cc1)SCC(=O)O` [Compound 47C], the pest or weed control at 50 µg/cm2, 50 µg/cm2 in assay [1] and in assay [2] was 50 to 100% each time. In assay [3], the pest or weed control at 200 ppm lay within 0 to 80%.
In the case of `Cc1cccc(C)c1/N=C(/N/N=C/c1ccc(-c2ncn(-c3ccc(OC(F)(F)C(F)(F)F)cc3)n2)cc1)SCC(=O)O` [Compound 49C], the pest or weed control at 50 µg/cm2, 50 µg/cm2 in assay [1] and in assay [2] was 50 to 100% each time. For the same compound, in assay [3], the pest or weed control at 200 ppm fell in the range of 0 to 80%.
With `Cc1cccc(C)c1/N=C(/N/N=C/c1ccc(-c2ncn(-c3ccc(OC(F)(F)F)cc3)n2)cc1)SCC(=O)N1CCN(C(=O)OC(C)(C)C)CC1` [Compound 57C], the pest or weed control at 50 µg/cm2, 50 µg/cm2 in assay [1] and in assay [2] was 50 to 100% throughout. Moreover, the pest or weed control at 200 ppm in assay [3] lay within 0 to 80%.
`Cc1cccc(C)c1/N=C(/N/N=C/c1ccc(-c2ncn(-c3ccc(OC(F)(F)F)cc3)n2)cc1)SCC(=O)NCCCNC(=O)OC(C)(C)C` [Compound 58C]: the pest or weed control at 50 µg/cm2, 50 µg/cm2 in assay [1] and in assay [2] was 50 to 100% in each case. Besides, in assay [3], the pest or weed control at 200 ppm lay within 0 to 80%.
For the compound `Cc1cccc(C)c1/N=C(/N/N=C/c1ccc(-c2ncn(-c3ccc(OC(F)(F)F)cc3)n2)cc1)SCC(=O)NCC(NC(=O)OC(C)(C)C)C(=O)O` (stereo not drawn) [Compound 59C], the pest or weed control at 50 µg/cm2, 50 µg/cm2 in assay [1] and in assay [2] was 50 to 100% throughout. For the same compound, the pest or weed control at 200 ppm in assay [3] lay within 0 to 80%.
In the case of `Cc1cccc(C)c1/N=C(/N/N=C/c1ccc(-c2ncn(-c3ccc(OC(F)(F)F)cc3)n2)cc1)SCC(=O)NC[C@@H]1CCCNC1` [Compound 62C, (1Z,2E)-2-oxo-2-(((R)-piperidin-3-ylmethyl)amino)ethyl N-(2,6-dimethylphenyl)-2-(4-(1-(4-(trifluoromethoxy)phenyl)-1H-1,2,4-triazol-3-yl)benzylidene)hydrazinecarbimidothioate trifluoroacetic acid], the pest or weed control at 50 µg/cm2, 50 µg/cm2 in assay [1] and in assay [2] was 50 to 100% each time. Besides, the pest or weed control at 200 ppm in assay [3] lay within 0 to 80%.
For `COc1cc(C)c(/N=C(/N/N=C/c2ccc(-c3ncn(-c4ccc(OC(F)(F)F)cc4)n3)cc2)SCC(=O)N2CCNCC2)c(C)c1` [Compound 65C], the pest or weed control at 50 µg/cm2, 50 µg/cm2 in assay [1] and in assay [2] was 50 to 100% in each case. The pest or weed control at 200 ppm in assay [3] fell in the range of 0 to 80%.
With `Cc1cccc(C)c1/N=C(/N/N=C/c1ccc(-c2ncn(-c3ccc(OC(F)(F)F)cc3)n2)cc1)SCC(=O)NCCCN` [Compound 66C], the pest or weed control at 50 µg/cm2, 50 µg/cm2 in assay [1] and in assay [2] was 50 to 100% throughout. Besides, the pest or weed control at 200 ppm in assay [3] fell in the range of 0 to 80%.
Take `COc1cc(C)c(/N=C(/N/N=C/c2ccc(-c3ncn(-c4ccc(OC(F)(F)F)cc4)n3)cc2)SCC(=O)O)c(C)c1.[Na+]` [Compound 68C, 2-(((Z)-((4-methoxy-2,6-dimethylphenyl)imino)((E)-2-(4-(1-(4-(trifluoromethoxy)phenyl)-1H-1,2,4-triazol-3-yl)benzylidene)hydrazinyl)methyl)-thio)acetic acid sodium salt]: the “% Mortality CEW 50 μg/cm^2” value in assay [1] is on record as “A (50-100)”. In addition, the “% Mortality BAW 50 μg/cm^2” value in assay [2] is on record as “A (50-100)”. The pest or weed control at 200 ppm in assay [3] was in the range of 0 to 80%.
Turning to `Cc1cccc(C)c1N1C(=O)CS/C1=N\N=C\c1ccc(-c2ncn(-c3ccc(OC(F)(F)F)cc3)n2)cc1` [Compound 72C], the “% Mortality CEW 50 μg/cm^2” value in assay [1] is “A (50-100)”. Moreover, the “% Mortality BAW 50 μg/cm^2” value in assay [2] was “A (50-100)”. Besides, the pest or weed control at 200 ppm in assay [3] lay within 0 to 80%.
For the compound `CC(C)c1ccccc1N1C(=O)CS/C1=N\N=C\c1ccc(-c2ncn(-c3ccc(OC(F)(F)F)cc3)n2)cc1` [Compound 73C], the pest or weed control at 50 µg/cm2, 50 µg/cm2 in assay [1] and in assay [2] was 50 to 100% throughout. In assay [3], the pest or weed control at 200 ppm fell in the range of 0 to 80%.
On to `Cc1cccc(C)c1-n1c(-c2nccs2)cs/c1=N\N=C\c1ccc(-c2ncn(-c3ccc(OC(F)(F)F)cc3)n2)cc1` [Compound 75C], for which the pest or weed control at 50 µg/cm2, 50 µg/cm2 in assay [1] and in assay [2] was 50 to 100% throughout. Moreover, the pest or weed control at 200 ppm in assay [3] is 0 to 80%.
For `Cc1cccc(C)c1-n1c(-c2cc(-c3ccc(Cl)cc3)no2)cs/c1=N\N=C\c1ccc(-c2ncn(-c3ccc(OC(F)(F)F)cc3)n2)cc1` [Compound 76C], the pest or weed control at 50 µg/cm2, 50 µg/cm2 in assay [1] and in assay [2] was 50 to 100% in each case. Moreover, the pest or weed control at 200 ppm in assay [3] fell in the range of 0 to 80%.
Regarding `Cc1cccc(C)c1-n1c(-c2ccc(C(=O)O)cc2)cs/c1=N\N=C\c1ccc(-c2ncn(-c3ccc(OC(F)(F)F)cc3)n2)cc1` [Compound 77C], the pest or weed control at 50 µg/cm2, 50 µg/cm2 in assay [1] and in assay [2] was 50 to 100% throughout. The pest or weed control at 200 ppm in assay [3] is 0 to 80%.
`Cc1cccc(C)c1-n1c(-c2ccc(OC(F)(F)F)cc2)cs/c1=N\N=C\c1ccc(-c2ncn(-c3ccc(OC(F)(F)F)cc3)n2)cc1` [Compound 78C]: the pest or weed control at 50 µg/cm2, 50 µg/cm2 in assay [1] and in assay [2] was 50 to 100% each time. In assay [3], the pest or weed control at 200 ppm was 0 to 80%.
